Test results as given in US5969132.
Read-outs that look alike come from different tables or passages of the source.

Settings: amide bond, NaHCO3, CH2Cl2, 72.0 h, 2 steps

Structure (SMILES) | ring closure, yield of all isomers (from CC(C)[C@H](NC(=O)CNC(=O)OC(C)(C)C)C(=O)N[C@@H](Cc1ccc(OCC(=O)Oc2c(F)c(F)c(F)c(F)c2F)cc1)C(O)C(F)(F)C(=O)NCc1ccccc1) | ring closure, yield of all isomers (from CC(C)[C@H](COCc1ccccc1)NC(=O)C(F)(F)C(O)[C@H](Cc1ccc(OCC(=O)Oc2c(F)c(F)c(F)c(F)c2F)cc1)NC(=O)[C@@H](NC(=O)CNC(=O)OC(C)(C)C)C(C)C, 1.69 mM)
CC(C)[C@@H]1NC(=O)CNC(=O)COc2ccc(cc2)C[C@@H](C(O)C(F)(F)C(=O)NCc2ccccc2)NC1=O (some centres unmarked) | 78.7% | 
CC(C)[C@H](COCc1ccccc1)NC(=O)C(F)(F)[C@H](O)[C@@H]1Cc2ccc(cc2)OCC(=O)NCC(=O)N[C@@H](C(C)C)C(=O)N1 |  | 8%
